According to patent US9012454B2, “Sexual dysfunction” (Mayo Foundation for Medical Education and Research, priority 2005, dated 2015):

Key:
LZ+ MYPT1 isoform = assay: Western blot of relative LZ+ MYPT1 isoform expression in vascular smooth muscle after LAD ligation; assay type: in vivo, rat; conditions: for LZ+ MYPT1 isoform expression in aorta (in words) / LZ+ MYPT1 isoform expression in iliac artery (in words): captopril 2-8 weeks, prazosin 4 weeks
[1] = test system: surgical infarct model of CHF; assay: Transthoracic echocardiography in surgical infarct (LAD ligation) model of CHF; assay type: in vivo, rat; conditions: for fractional shortening (FS): 4 weeks after surgery, captopril 100 mg/kg/day or prazosin 2 mg/kg/day, mean±SEM
Procedure: Adult male Sprague-Dawley rats (Harlan, Indianapolis, Ind.) weighing 400-450 grams were put under general anesthesia by intraperitoneal injection with a mixture (3:3:2) of ketamine (100 mg/mL), xylazine (20 mg/mL), and acepromazine (10 mg/mL). After intubation, the rats were ventilated continuously (room air) using a small animal ventilator (model 683, Harvard Apparatus, Holliston, Mass.). A left lateral thoracotomy incision was made along the 5th intercostal space. After the pericardium was opened, the heart was exteriorized using a retention suture placed at the apex. The left anterior descending coronary artery (LAD) was ligated twice using 6-0 prolene suture (Ethicon, Piscataway, N.J.). After chest closure with running 3-0 vicryl suture (Ethicon), rats were placed in a recovery chamber with a heating pad and a warming light.
Beginning on post-operative day one, rats were allowed to drink ad libitum. One group was fed water with captopril (2 g/L), and another group was fed water alone (Pfeffer et al., Circ. Res., 57:84-95 (1985)). The rats were fed a standard diet of Teklad rodent feed (Harlan) ad libitum and kept on a 12:12 hour light-dark cycle. In both the captopril- and the placebo-treated group, the rats were sacrificed at designated time intervals of 2 weeks and then 4, 6, and 8 weeks after surgery. On average, the rats drank approximately 20 mL of water daily, which corresponded to a dose of 100 mg/kg/day of captopril.
All rats in the placebo- and captopril-treated groups underwent transthoracic echocardiography (Acuson Sequoia C256® Echocardiography System, Siemens Medical Solutions USA, Inc., Malvern, Pa.) at baseline prior to LAD ligation and at 2, 4, 6, and 8 weeks after LAD ligation using 2-D digital loop imaging under conscious sedation with vaporized isoflurane as described previously (Karim et al., Circ. Res., 95:612-18 (2004); Morgan et al., Am. J. Physiol. Heart Circ. Physiol., 287:H2049-H2053 (2004)). […] Both parasternal long and short axis views were obtained using a 13-MHz linear array transducer. Digital calipers were used to measure end systolic dimension (ESD) and end diastolic dimension (EDD). Cardiac function was estimated using fractional shortening (FS) obtained from the EDD and ESD in the parasternal long axis view and calculated as FS=((EDD−ESD)/EDD)×100%.
The echocardiographic data were reported as mean±SEM.

With `COc1cc2nc(N3CCN(C(=O)c4ccco4)CC3)nc(N)c2cc1OC` [prazosin] as the molecule, how does the “LZ+ MYPT1 isoform expression in the aorta (fall versus uninfarcted control)” value (LZ+ MYPT1 isoform; aorta, 4 weeks after infarction, placebo 44±1%, P<0.05) read?
The value was 68±1%.

And the “LZ+ MYPT1 isoform expression in the iliac artery (fall versus uninfarcted control)” value (LZ+ MYPT1 isoform; iliac artery, 4 weeks after infarction, placebo 52±2%, P=0.87)?
The value was 54±2%.

What about the “LZ+ MYPT1 isoform expression in aorta (in words)” value (LZ+ MYPT1 isoform; infarct rats, aorta) of the same molecule?
The value was “did not prevent the fall”.

What about the “LZ+ MYPT1 isoform expression in iliac artery (in words)” value (LZ+ MYPT1 isoform; infarct rats, iliac artery) of the same molecule?
The value was “did not prevent the fall”.

What about the “fractional shortening (FS)” value ([1]; infarct rats) of the same molecule?
Its value is 38±2%.

What does the source list for `C[C@H](CS)C(=O)N1CCC[C@H]1C(=O)O` [captopril]?
LZ+ MYPT1 isoform expression in aorta (in words) (LZ+ MYPT1 isoform; infarct rats, aorta): preserved at the uninfarcted control level; LZ+ MYPT1 isoform expression in iliac artery (in words) (LZ+ MYPT1 isoform; infarct rats, iliac artery): preserved at the level of the uninfarcted control smooth muscle; LZ+ MYPT1 isoform expression in portal vein (in words) (LZ+ MYPT1 isoform; infarct rats, portal vein, all time intervals): remained low; effect on fractional shortening / left ventricular function (LVF) ([1]; infarct rats versus placebo, captopril as early as 2 weeks post-infarction, prazosin at 4 weeks): attenuated the fall in FS and improved left ventricular function; fractional shortening (FS) ([1]; infarct rats): 45±1%; end systolic dimension (ESD) compared to placebo ([1]; infarct rats, all time-points (2, 4, 6, 8 weeks), P<0.05): reduced the ESD
